Measured values taken from US20230277534A1 (Plexxikon Inc., priority 2011, published 2023).

What was measured:
[1] = system: COLO205 colon adenocarcinoma cells (B-Raf V600E mutation); test: COLO205 cell growth inhibition (ATPlite); type: cell-based; conditions: Homo sapiens, COLO 205, 72 h, 3 days
Method: Compounds are assessed in a variety of cell based assays.
On day 1, cells are counted, then centrifuged in a conical tube for 5 minutes at 1000 rpm.
On day 2, compound at a maximum concentration of 5 mM is serially diluted 1:3 (e.g. 10 μL with 30 μL dimethyl sulfoxide) for a total of 8 point titration with DMSO as a control. A 1 μL aliquot of each dilution point and control is added to 249 μL growth media and 50 μL is added to a well containing cells, providing 10 μM compound at the maximum concentration point. The cells are incubated for 3 days at 37° C. in 5% CO2.
ATPlite is added 25 μL to each well, shake for 2 minutes, and the cells are incubated at room temperature for 10 minutes, then luminescence is read on Safire reader. The measured luminescence correlates directly with cell number, such that the reading as a function of compound concentration is used to determine the IC50 value.

[2] = biological target: B-Raf V600E (Homo sapiens (Human), UniProt P15056, V600E); test: B-Raf V600E kinase biochemical activity assay (AlphaScreen, biotin-MEK1 substrate); conditions: 100 μM ATP
Sequence of B-Raf V600E (P15056 whole entry V600E): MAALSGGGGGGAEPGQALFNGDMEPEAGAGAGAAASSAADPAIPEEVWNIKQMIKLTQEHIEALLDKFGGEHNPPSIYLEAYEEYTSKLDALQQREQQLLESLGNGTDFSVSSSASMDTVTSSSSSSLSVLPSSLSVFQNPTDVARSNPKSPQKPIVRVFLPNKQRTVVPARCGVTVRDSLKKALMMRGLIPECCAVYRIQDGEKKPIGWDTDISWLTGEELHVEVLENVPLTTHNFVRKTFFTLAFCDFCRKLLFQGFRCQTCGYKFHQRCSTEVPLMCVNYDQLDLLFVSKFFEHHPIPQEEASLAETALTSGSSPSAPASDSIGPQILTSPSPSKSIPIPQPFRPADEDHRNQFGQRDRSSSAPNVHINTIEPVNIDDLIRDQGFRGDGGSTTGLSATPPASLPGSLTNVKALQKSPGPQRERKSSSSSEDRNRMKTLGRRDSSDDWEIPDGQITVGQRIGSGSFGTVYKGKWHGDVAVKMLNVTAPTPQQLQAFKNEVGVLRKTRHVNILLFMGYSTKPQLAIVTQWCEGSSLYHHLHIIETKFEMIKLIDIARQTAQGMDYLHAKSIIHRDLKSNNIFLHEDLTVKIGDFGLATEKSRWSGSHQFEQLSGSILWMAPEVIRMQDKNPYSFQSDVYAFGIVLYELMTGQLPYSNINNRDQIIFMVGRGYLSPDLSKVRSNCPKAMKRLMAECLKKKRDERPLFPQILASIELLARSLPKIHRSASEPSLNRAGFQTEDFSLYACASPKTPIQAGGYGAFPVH
Method: Assays for biochemical and cell based activity are known in the art, for example, as described in PCT publication WO 2007/002433, the disclosure of which is hereby incorporated by reference as it relates to such assays. For example, the biochemical activity IC50 values are determined with respect to inhibition of B-Raf V600E kinase activity or p-Erk kinase activity, where inhibition of phosphorylation of a peptide substrate is measured as a function of compound concentration. Compounds to be tested are diluted in dimethyl sulfoxide to a concentration of 0.1 mM. These are serially diluted 15 μL into 30 μL of dimethyl sulfoxide seven times in 96 well plates for a total of 8 dilution points, and for each dilution point 1 μL is added to a well of an assay plate. Plates are prepared such that each well in a 384 well plate contains 1 μL of compound in 10 μL volume with 0.1 ng Raf enzyme (i.e. any of B-Raf, c-Raf-1 or B-Raf V600E, Upstate Biotechnology or prepared by methods known to one of skill in the art), 50 mM HEPES, pH 7.0, 50 mM NaCl, 2 mM MgCl2, 1 mM MnCl2, 0.01% Tween-20, 1 mM DTT, and 100 nM biotin-MEK1 as substrate. The reaction is started with addition of 10 μL of 200 μM ATP (i.e. final 100 μM ATP). After incubation of the kinase reaction for 45 minutes at room temperature, 5 μL/well of Stop Solution is added (25 mM Hepes pH 7.5, 100 mM EDTA, 0.01% BSA with donor beads (Streptavidin coated beads, Perkin Elmer), acceptor beads (Protein A coated, Perkin Elmer), and anti phosphor MEK1/2 antibody (CellSignal), each at final concentration 10 μg/mL). The plates are incubated for 3 hours at room temperature and read on Envision reader (Perkin Elmer). Phosphorylation of Mek1 results in binding of the anti-phosphor-MEK1/2antibody and association of the donor and acceptor beads such that signal correlates with kinase activity. The signal vs. compound concentration is used to determine the IC50.

| IC50 [1] [µM] | IC50 [2] [µM] | SMILES |
| --- | --- | --- |
| > 1 | > 0.1 | CC(C)NS(=O)(=O)Nc1cccc(C(=O)c2c[nH]c3ncc(I)cc23)c1F [Compound P-0071, [2-fluoro-3-(isopropylsulfamoylamino)phenyl]-(5-iodo-1H-pyrrolo[2,3-b]pyridin-3-yl)methanone] |
| > 1 | > 0.1 | COc1ncc(-c2cnc3[nH]cc(C(=O)c4cccc(NS(=O)(=O)N(C)CC(C)C)c4F)c3c2)cn1 [Compound P-0072, 3-[2-fluoro-3-[[isobutyl(methyl)sulfamoyl]amino]benzoyl]-5-(2-methoxypyrimidin-5-yl)-1H-pyrrolo[2,3-b]pyridine] |
| > 1 | > 0.1 | COCCN(C)S(=O)(=O)Nc1cccc(C(=O)c2c[nH]c3ncc(-c4cnc(OC)nc4)cc23)c1F [Compound P-0073, 3-[2-fluoro-3-[[2-methoxyethyl(methyl)sulfamoyl]amino]benzoyl]-5-(2-methoxypyrimidin-5-yl)-1H-pyrrolo[2,3-b]pyridine] |
| > 1 | > 0.1 | COc1ncc(-c2cnc3[nH]cc(C(=O)c4cccc(NS(=O)(=O)N5CCCC5C)c4F)c3c2)cn1 (stereo not shown) [Compound P-0074, N-[2-fluoro-3-[5-(2-methoxypyrimidin-5-yl)-1H-pyrrolo[2,3-b]pyridine-3-carbonyl]phenyl]-2-methyl-pyrrolidine-1-sulfonamide] |
| < 1 | < 0.1 | CCN(C)S(=O)(=O)Nc1cccc(C(=O)c2c[nH]c3ncc(-c4ccc(N(C)C)nc4)cc23)c1F [Compound P-0076, 5-[6-(dimethylamino)-3-pyridyl]-3-[3-[[ethyl(methyl)sulfamoyl]amino]-2-fluoro-benzoyl]-1H-pyrrolo[2,3-b]pyridine] |
| < 1 | < 0.1 | CCN(C)S(=O)(=O)Nc1cccc(C(=O)c2c[nH]c3ncc(-c4cnc(NC5CC5)nc4)cc23)c1F [Compound P-0077, 5-[2-(cyclopropylamino)pyrimidin-5-yl]-3-[3-[[ethyl(methyl)sulfamoyl]amino]-2-fluoro-benzoyl]-1H-pyrrolo[2,3-b]pyridine] |
| > 1 | < 0.1 | CCCN(C)S(=O)(=O)Nc1ccc(F)c(C(=O)c2c[nH]c3ncc(-c4cnc(C5CC5)nc4)cc23)c1F [Compound P-0078, 5-(2-cyclopropylpyrimidin-5-yl)-3-[2,6-difluoro-3-[[methyl(propyl)sulfamoyl]amino]benzoyl]-1H-pyrrolo[2,3-b]pyridine] |
| > 1 | < 0.1 | COCCN(C)S(=O)(=O)Nc1cccc(C(=O)c2c[nH]c3ncc(-c4ccc(C5(C#N)CC5)cc4)cc23)c1F [Compound P-0080, 5-[4-(1-cyanocyclopropyl)phenyl]-3-[2-fluoro-3-[[2-methoxyethyl(methyl)sulfamoyl]amino]benzoyl]-1H-pyrrolo[2,3-b]pyridine] |
| < 1 | < 0.1 | COCCN(C)S(=O)(=O)Nc1cccc(C(=O)c2c[nH]c3ncc(-c4cnc(NC5CC5)nc4)cc23)c1F [Compound P-0081, 5-[2-(cyclopropylamino)pyrimidin-5-yl]-3-[2-fluoro-3-[[2-methoxyethyl(methyl)sulfamoyl]amino]benzoyl]-1H-pyrrolo[2,3-b]pyridine] |
| < 1 | < 0.1 | CN(CC1CC1)S(=O)(=O)Nc1cccc(C(=O)c2c[nH]c3ncc(-c4cnc(C5CC5)nc4)cc23)c1F [Compound P-0084, 3-[3-[[cyclopropylmethyl(methyl)sulfamoyl]amino]-2-fluoro-benzoyl]-5-(2-cyclopropylpyrimidin-5-yl)-1H-pyrrolo[2,3-b]pyridine] |
| > 1 | < 0.1 | COCCN(C)S(=O)(=O)Nc1cccc(C(=O)c2c[nH]c3ncc(-c4cnc(C5CC5)nc4)cc23)c1F [Compound P-0085, 5-(2-cyclopropylpyrimidin-5-yl)-3-[2-fluoro-3-[[2-methoxyethyl(methyl)sulfamoyl]amino]benzoyl]-1H-pyrrolo[2,3-b]pyridine] |
| > 1 | < 0.1 | COc1ncc(-c2cnc3[nH]cc(C(=O)c4cccc(NS(=O)(=O)N5CC(F)(F)C5)c4F)c3c2)cn1 [Compound P-0088, 3,3-difluoro-N-[2-fluoro-3-[5-(2-methoxypyrimidin-5-yl)-1H-pyrrolo[2,3-b]pyridine-3-carbonyl]phenyl]azetidine-1-sulfonamide] |
| > 1 | < 0.1 | CCN(C)S(=O)(=O)Nc1cccc(C(=O)c2c[nH]c3ncnc(N[C@@H](C)C4CC4)c23)c1F [Compound P-0089, 4-[[(1S)-1-cyclopropylethyl]amino]-5-[3-[[ethyl(methyl)sulfamoyl]amino]-2-fluoro-benzoyl]-7H-pyrrolo[2,3-d]pyrimidine] |
| < 1 | < 0.1 | N#Cc1ccc(-c2cnc3[nH]cc(C(=O)c4cccc(NS(=O)(=O)N5CCCC5)c4F)c3c2)cc1 [Compound P-0090, N-[3-[5-(4-cyanophenyl)-1H-pyrrolo[2,3-b]pyridine-3-carbonyl]-2-fluoro-phenyl]pyrrolidine-1-sulfonamide] |
| < 1 | < 0.1 | Cc1ncc(-c2cnc3[nH]cc(C(=O)c4cccc(NS(=O)(=O)N5CCCC5)c4F)c3c2)cn1 [Compound P-0092, N-[2-fluoro-3-[5-(2-methylpyrimidin-5-yl)-1H-pyrrolo[2,3-b]pyridine-3-carbonyl]phenyl]pyrrolidine-1-sulfonamide] |
| < 1 | < 0.1 | N#Cc1cncc(-c2cnc3[nH]cc(C(=O)c4cccc(NS(=O)(=O)N5CCCC5)c4F)c3c2)c1 [Compound P-0093, N-[3-[5-(5-cyano-3-pyridyl)-1H-pyrrolo[2,3-b]pyridine-3-carbonyl]-2-fluoro-phenyl]pyrrolidine-1-sulfonamide] |
| < 1 | < 0.1 | N#Cc1ccc(-c2cnc3[nH]cc(C(=O)c4cccc(NS(=O)(=O)N5CCCC5)c4F)c3c2)cn1 [Compound P-0094, N-[3-[5-(6-cyano-3-pyridyl)-1H-pyrrolo[2,3-b]pyridine-3-carbonyl]-2-fluoro-phenyl]pyrrolidine-1-sulfonamide] |
| < 1 | < 0.1 | O=C(c1cccc(NS(=O)(=O)N2CCCC2)c1F)c1c[nH]c2ncc(-c3ccc(C(F)(F)F)nc3)cc12 [Compound P-0095, N-[2-fluoro-3-[5-[6-(trifluoromethyl)-3-pyridyl]-1H-pyrrolo[2,3-b]pyridine-3-carbonyl]phenyl]pyrrolidine-1-sulfonamide] |
| < 1 | < 0.1 | Cc1ncc(-c2cnc3[nH]cc(C(=O)c4cccc(NS(=O)(=O)N(C)C)c4F)c3c2)cn1 [Compound P-0097, 3-[3-(dimethylsulfamoylamino)-2-fluoro-benzoyl]-5-(2-methylpyrimidin-5-yl)-1H-pyrrolo[2,3-b]pyridine] |
| < 1 | < 0.1 | CN(C)S(=O)(=O)Nc1cccc(C(=O)c2c[nH]c3ncc(-c4cncc(C#N)c4)cc23)c1F [Compound P-0098, 5-(5-cyano-3-pyridyl)-3-[3-(dimethylsulfamoylamino)-2-fluoro-benzoyl]-1H-pyrrolo[2,3-b]pyridine] |
| > 1 | < 0.1 | CN(C)S(=O)(=O)Nc1cccc(C(=O)c2c[nH]c3ncc(-c4ccc(C#N)nc4)cc23)c1F [Compound P-0099, 5-(6-cyano-3-pyridyl)-3-[3-(dimethylsulfamoylamino)-2-fluoro-benzoyl]-1H-pyrrolo[2,3-b]pyridine] |
| > 1 | < 0.1 | CCN(C)S(=O)(=O)Nc1cccc(C(=O)c2c[nH]c3ncc(-c4cnc(C#N)nc4)cc23)c1F [Compound P-0100, 5-(2-cyanopyrimidin-5-yl)-3-[3-[[ethyl(methyl)sulfamoyl]amino]-2-fluoro-benzoyl]-1H-pyrrolo[2,3-b]pyridine] |

| SMILES | IC50 [1] [µM] | IC50 [2] [µM] |
| --- | --- | --- |
| CCN(C)S(=O)(=O)Nc1cccc(C(=O)c2c[nH]c3ncc(-c4cncc(C#N)c4)cc23)c1F [Compound P-0101, 5-(5-cyano-3-pyridyl)-3-[3-[[ethyl(methyl)sulfamoyl]amino]-2-fluoro-benzoyl]-1H-pyrrolo[2,3-b]pyridine] | > 1 | < 0.1 |
